Measured values reported in ChEMBL document CHEMBL3046742, “Isolation and anxiolytic activity of 3,4-bis(3,4-dimethoxyphenyl)furan-2,5-dione from the ethanolic extract of heart wood of Cedrus deodara” (2012).
Activity calls are given as the source filed them. No cut-off for these calls is given here.

What was measured:
Mus musculus [1] = test: Anxiolytic activity in Mus musculus Swiss albino (mouse) assessed as time spent in neutral zone at 30 mg/kg, po administered 1 hr prior to testing measured for 5 min by plus-maze test (reference value: 70 +/- 5.63 secs); format: functional
Mus musculus [2] = test: Anxiolytic activity in Mus musculus Swiss albino (mouse) assessed as increase in time spent in light zone at 10 mg/kg, po administered 1 hr prior to testing measured for 5 min by light-dark test (reference value: 64 +/- 4.02 secs); format: functional
Mus musculus [3] = test: Anxiolytic activity in Mus musculus Swiss albino (mouse) assessed as increase in time spent in light zone at 100 mg/kg, po administered 1 hr prior to testing measured for 5 min by light-dark test (reference value: 64 +/- 4.02 secs); format: functional
Mus musculus [4] = test: Anxiolytic activity in Mus musculus Swiss albino (mouse) assessed as increase in time spent in open arms at 10 mg/kg, po administered 1 hr prior to testing measured for 5 min by plus-maze test (reference value: 23 +/- 1.63 secs); format: functional
Mus musculus [5] = test: Anxiolytic activity in Mus musculus Swiss albino (mouse) assessed as increase in time spent in light zone at 30 mg/kg, po administered 1 hr prior to testing measured for 5 min by light-dark test (reference value: 64 +/- 4.02 secs); format: functional
Mus musculus [6] = test: Anxiolytic activity in Mus musculus Swiss albino (mouse) assessed as increase in ambulation at 200 to 400 mg/kg, po administered 45 min prior to testing measured for 5 min by open-field test relative to control; format: functional, organism-based
Mus musculus [7] = test: Anxiolytic activity in Mus musculus Swiss albino (mouse) assessed as decrease in immobility duration at 2 mg/kg, po administered 1 hr prior to testing measured for 5 min by light-dark test relative to control; format: functional, organism-based; set-up: dose 2 mg/kg
Mus musculus [8] = test: Anxiolytic activity in Mus musculus Swiss albino (mouse) assessed as increase in time spent in open arms at 30 mg/kg, po administered 1 hr prior to testing measured for 5 min by plus-maze test (reference value: 23 +/- 1.63 secs); format: functional
Mus musculus [9] = test: Anxiolytic activity in Mus musculus Swiss albino (mouse) assessed as increase in ambulation at 100 mg/kg, po administered 45 min prior to testing measured for 5 min by open-field test relative to control; format: functional, organism-based; set-up: dose 100 mg/kg
Mus musculus [10] = test: Anxiolytic activity in Mus musculus Swiss albino (mouse) assessed as time spent in neutral zone at 100 mg/kg, po administered 1 hr prior to testing measured for 5 min by plus-maze test (reference value: 70 +/- 5.63 secs); format: functional
Mus musculus [11] = test: Anxiolytic activity in Mus musculus Swiss albino (mouse) assessed as time spent in neutral zone at 10 mg/kg, po administered 1 hr prior to testing measured for 5 min by plus-maze test (reference value: 70 +/- 5.63 secs); format: functional
Mus musculus [12] = test: Anxiolytic activity in Mus musculus Swiss albino (mouse) assessed as increase in time spent in open arms at 100 mg/kg, po administered 1 hr prior to testing measured for 5 min by plus-maze test (reference value: 23 +/- 1.63 secs); format: functional
Mus musculus [13] = test: Anxiolytic activity in Mus musculus Swiss albino (mouse) assessed as increase in time spent in light zone at 2 mg/kg, po administered 1 hr prior to testing measured for 5 min by light-dark test (reference value: 64 +/- 4.02 secs); format: functional
Mus musculus [14] = test: Anxiolytic activity in Mus musculus Swiss albino (mouse) assessed as time spent in neutral zone at 2 mg/kg, po administered 1 hr prior to testing measured for 5 min by plus-maze test (reference value: 70 +/- 5.63 secs); format: functional
Mus musculus [15] = test: Anxiolytic activity in Mus musculus Swiss albino (mouse) assessed as increase in ambulation at 2 mg/kg, po administered 45 min prior to testing measured for 5 min by open-field test relative to control; format: functional, organism-based; set-up: dose 2 mg/kg
Mus musculus [16] = test: Anxiolytic activity in Mus musculus Swiss albino (mouse) assessed as increase in time spent in open arms at 2 mg/kg, po administered 1 hr prior to testing measured for 5 min by plus-maze test (reference value: 23 +/- 1.63 secs); format: functional

In the case of `COc1ccc(C2=C(c3ccc(OC)c(OC)c3)C(=O)OC2=O)cc1OC`, the Time (Mus musculus [1]) was 45 s, the Time (Mus musculus [2]) was 95 s and the Time (Mus musculus [3]) was 145 s. For the same molecule, the Time (Mus musculus [4]) was 66 s, the Time (Mus musculus [5]) was 120 s and the Activity (Mus musculus [6]) was “inactive”. For the same molecule, the Activity (Mus musculus [7]) was “Active”, the Time (Mus musculus [8]) was 110 s and the Activity (Mus musculus [9]) was “Active”. The Time (Mus musculus [10]) was 29 s, the Time (Mus musculus [11]) was 65 s and the Time (Mus musculus [12]) was 151 s.
In the case of `CN1C(=O)CN=C(c2ccccc2)c2cc(Cl)ccc21` [DIAZEPAM], the Time (Mus musculus [13]) was 171 s, the Time (Mus musculus [14]) was 32 s and the Activity (Mus musculus [15]) was “Active”. It also gave a Time (Mus musculus [16]) of 166 s.
